Data set [1] relates to ACA acylase. Put plainly: Influences of inhibitors and activators on ACA acylase activity (standard conditions, coupled test with D-2-hydroxy-4-methylpentanoic acid dehydrogenase). Type of data set: biochemical, Brevibacterium spec. How it is done: 0.1 M phosphate buffer for pH 7.5
(§1) limiting amounts of ACA acylase.
(Deviation: The tests with bivalent metal ions were performed in 0.1M tris/HCl buffer for pH 8.0.)

The subject of data set [2] is ACA acylase. Put plainly: Substrate specificity, test 3: peptides and N-acyl phenylalanines, amino acids detected with amino acid analyzer. Type of data set: biochemical, Brevibacterium spec. The following applies: for Activity / Relative Activity: 50 mM substrate, pH 7.5, 30° C.; for Activity: 0.1 U/ml ACA acylase; for Relative Activity: relative to α-acetylamino cinnamic acid = 100%. The procedure: Other substrates used were N-acetyl-L-phenylalanine, N-methoxycarbonyl-D,L-phenylalanine and various peptides. The test batch contained in these instances:
0.1 M potassium phosphate buffer (pH 7.5)
(§2) The batches (1 ml altogether) were agitated (30° C.) and samples were taken at different times. The amino acids produced by the acylase action were quantitatively detected with the aid of an amino acid analyzer. The activity of the enzymes is also indicated in this instance in international units-an activity of 1 U corresponds to the formation of 1 μmole amino acid per minute. The activities measured with the 3 test batches are listed in column 2 of Table 6 in mU/ml. For the determination of the relative activity (column 3 of Table 6), the activity of the α-acetylamino cinnamic acid as substrate was set equal to 100%.

For data set [3], the system named is ACA acylase. Put plainly: Dependency of ACA acylase activity on substrate concentration, coupled with L-phenylalanine dehydrogenase (pH 8.5). In kind it is biochemical, Brevibacterium spec. The procedure: 0.7 mM ammonium chloride/ammonia buffer (pH 8.5)
0.5 U L--phenylalanine dehydrogenase
as §1
The α-acetylamino cinnamic acid concentration was varied within a range of 1-36 mM. […] The KM value for α-acetylamino cinnamic acid is 3.9 mM.

The test system of data set [4] is ACA acylase. As to the kind of experiment: Substrate specificity, test 1: α-acetylamino cinnamic acid, photometric test coupled with L-phenylalanine dehydrogenase. In kind it is biochemical, Brevibacterium spec. How it is done:
In a series of parallel batches, the substrate α-acetylamino cinnamic acid was replaced by other compounds and tested to see to what extent the enzyme accepts other substrates. The following test batches were used depending on the substrate used:
1. Test with α-acetylamino cinnamic acid as substrate:
50 mM α-acetylamino cinnamic acid
The activity was measured (at 340 nm) by a photometric test as described in Example 1.
as §2

In data set [5] the test system is ACA acylase. Put plainly: Dependency of ACA acylase activity on substrate concentration, coupled with D-2-hydroxy-4-methylpentanoic acid dehydrogenase (pH 7.5). In kind it is biochemical, Brevibacterium spec. The procedure:
0.1 M phosphate buffer (pH 7.5)
0.8 U D--2-hydroxy-4-methylpentanoic acid dehydrogenase
as §1
The α-acetylamino cinnamic acid concentration was varied within a range of 0.1-18 mM. […] The KM value for α-acetylamino cinnamic acid is at 0.45 mM.

Data set [6] deals with ACA acylase. As to the kind of experiment: Substrate specificity, test 2: α-acetylamino acrylic acid, photometric test coupled with L-alanine dehydrogenase. In kind it is biochemical, Brevibacterium spec. The procedure: 2. Test with α-acetylamino acrylic acid:
50 mM α-acetyl amino acrylic acid
1 U/ml L--alanine dehydrogenase
The activity was measured in an analogous manner (by a photometric test at 340 nm) (1 μmole NADH decrease would correspond to 1 μmole formation of alanine).
as §2

For data set [7] the following is noted: at 25° C.; cited from earlier work.
[8] abbreviates: reagent concentration 1 nM (so in the source), 0.1 M phosphate buffer pH 7.5, 30° C.
The mark [9] stands for this setting: reagent concentration 10 nM (so in the source), 0.1 M phosphate buffer pH 7.5, 30° C.
Where [10] appears, read: bivalent metal ion, concentration 1 nM (so in the source), 0.1M tris/HCl buffer pH 8.0.
Where [11] appears, read: bivalent metal ion, concentration 10 nM (so in the source), 0.1M tris/HCl buffer pH 8.0.

Converted amounts (≈) assume the structure as drawn.

As a reminder, the Km is the substrate concentration at which the rate is half of its maximum.

Consider `O[C@H](CS)[C@H](O)CS` (racemic) [dithiothreitol], for which the “Influence on the enzyme (in words)” value in data set [1] (addition of 1 mmole) is “activates”. Besides, the “Residual Activity” value in data set [1] (setting [8]) is recorded as 146%; in data set [1] (setting [9]), 123%.

On to p-mercuric benzoate, for which the results for the “Residual Activity” value in data set [1] (setting [8]) and in data set [1] (setting [9]) were 41% and 3%, respectively. Besides, in data set [1] (summary of properties), the “Influence on the enzyme (in words)” value is reported as “inhibiting action”.

For the compound L--ala-L--his, in data set [2], the Activity was 43 mU.ml^-1 and the “Relative Activity” value is 34%.

In the case of `c1ccc(-c2ccccn2)nc1` [2,2-dipyridyl], the “Residual Activity” value in data set [1] (setting [8]) was 97%; in data set [1] (setting [9]), 69%.

Take L--leu-L--trp: in data set [2], the Activity turned out to be 67 mU.ml^-1 and the “Relative Activity” value worked out at 54%.

For `CC(=O)NC(=Cc1ccccc1)C(=O)O` [α-acetylamino cinnamic acid], the Km amounted to 3900 µM in data set [3] (pH 8.5, coupled with L-phenylalanine dehydrogenase); 450 µM in data set [5] (pH 7.5); 450 µM in data set [5] (pH 7.5, coupled with D-2-hydroxy-4-methylpentanoic acid dehydrogenase). Moreover, the “Substrate concentration at which the optimum reaction speed is achieved” value in data set [3] (pH 8.5, concentration varied 1-36 mM) is on record as 16 mM; in data set [5] (pH 7.5, concentration varied 0.1-18 mM) it was 5 mM. Besides, the Activity in data set [4] (50 mM substrate, 0.1 U/ml ACA acylase, pH 9.2) worked out at 125 mU.ml^-1. Moreover, the “Substrate specificity: hydrolysis by the enzyme (in words)” value (from here on “Substrate specificity: hydrolysis”) in data set [4] (summary of properties) was “hydrolyzes”. In addition, in data set [4] (α-acetylamino cinnamic acid set equal to 100%, 50 mM substrate, pH 9.2), the “Relative Activity” value is 100%.

For the compound `[Cl-].[Cl-].[Zn+2]` [ZnCl2], the entries for the “Residual Activity” value in data set [1] (setting [10]) and in data set [1] (setting [11]) were 86% and 34%, respectively.

In turn, `C=C(NC(C)=O)C(=O)O` [α-acetylamino acrylic acid] had an Activity in data set [6] (50 mM substrate, 0.1 U/ml ACA acylase, pH 8.0) of 0 mU.ml^-1. In data set [6] (relative to α-acetylamino cinnamic acid = 100%, 50 mM substrate, pH 8.0), the “Relative Activity” value is 0%. For the same compound, in data set [6] (summary of properties), the “Substrate specificity: hydrolysis” value is given as “not”.

As for L--ala-L--trp, in data set [2], the Activity came to 66 mU.ml^-1 and the “Relative Activity” value came to 53%.

Turning to L--ala-L--tyr, in data set [2], the Activity is listed as 78 mU.ml^-1 and the “Relative Activity” value was determined as 62%.

Consider gly-D-phe, for which, in data set [2], the Activity worked out at 0 mU.ml^-1 and the “Relative Activity” value is on record as 0%.

As to L--leu-L--phe, in data set [2], the Activity is 102 mU.ml^-1 and the “Relative Activity” value is given as 82%.

As to `COC(=O)NC(Cc1ccccc1)C(=O)O` (racemic) [N--methoxycarbonyl D,L--phenylalanine, N-methoxycarbonyl-D,L-phenylalanine], in data set [2], the Activity stood at 0 mU.ml^-1 and the “Relative Activity” value came to 0%.

For `[Cl-].[Cl-].[Mg+2]` [MgCl2], the “Residual Activity” value in data set [1] (setting [10]) and in data set [1] (setting [11]) was 100% in each case.

Consider `O=C(O)CN(CCN(CC(=O)O)CC(=O)O)CC(=O)O` [EDTA], for which the “Residual Activity” value in data set [1] (setting [8]) worked out at 111%; in data set [1] (setting [9]), 102%.

With `CC(=O)N[C@@H](Cc1ccccc1)C(=O)O` [N--acetyl-L--phenylalanine, N-acetyl-L-phenylalanine], in data set [2], the Activity amounted to 0 mU.ml^-1 and the “Relative Activity” value is listed as 0%. In addition, the “Substrate specificity: hydrolysis” value in data set [2] (summary of properties) is recorded as “not”.

On to `[Cl][Mn][Cl]` [MnCl2], for which, in data set [1] (setting [10]), the “Residual Activity” value amounted to 63%.

As for L--asp-L--phe, in data set [2], the Activity is on record as 38 mU.ml^-1 and the “Relative Activity” value is recorded as 30%.

For the compound L--ala-L--phe, in data set [2], the Activity was 105 mU.ml^-1 and the “Relative Activity” value worked out at 84%.

For the compound `[Cl][Ni][Cl]` [NiCl2], the “Residual Activity” value in data set [1] (setting [10]) is recorded as 83%; in data set [1] (setting [11]), 53%.

Take `[Cl][Cd][Cl]` [CdCl2]: the “Residual Activity” value was determined as 72% in data set [1] (setting [10]) and 29% in data set [1] (setting [11]). For the same compound, the “Influence on the enzyme (in words)” value in data set [1] (summary of properties) was “inhibiting action”.

Consider L--his-L--phe, for which, in data set [2], the Activity is recorded as 44 mU.ml^-1 and the “Relative Activity” value came out at 35%.

Regarding gly-L--phe, in data set [2], the Activity is reported as 40 mU.ml^-1 and the “Relative Activity” value is 32%.

`[Cl][Hg].[Cl][Hg]` [Hg2 Cl2]: the “Influence on the enzyme (in words)” value in data set [1] (summary of properties) is reported as “inhibiting action”.

In the case of `N[C@@H](CCC(=O)N[C@@H](CS)C(=O)NCC(=O)O)C(=O)O` [red. glutathione], the “Residual Activity” value is 102% in data set [1] (setting [8]) and 81% in data set [1] (setting [9]).

As for `c1cnc2c(c1)ccc1cccnc12` [o-phenanthroline], the “Residual Activity” value was determined as 72% in data set [1] (setting [8]) and 45% in data set [1] (setting [9]). In data set [1] (summary of properties), the “Influence on the enzyme (in words)” value is “inhibiting action”.

With L--ser-L--phe, in data set [2], the Activity was 36 mU.ml^-1 and the “Relative Activity” value turned out to be 29%.

Turning to L--leu-L--tyr, in data set [2], the Activity worked out at 109 mU.ml^-1 and the “Relative Activity” value amounted to 87%.

Regarding `OCCS` [2-mercaptoethanol], the “Residual Activity” value in data set [1] (setting [8]) and in data set [1] (setting [9]) was 100% in each case.

On to `N[C@@H](Cc1ccccc1)C(=O)O` [Phe, L-phenylalanine], for which, in data set [7], the “solubility in H2 O” value was 180000 µM (≈ 29.7 mg/mL).

In the case of `[Cl][Hg][Cl]` [HgCl2], the figures for the “Residual Activity” value in data set [1] (setting [10]) and in data set [1] (setting [11]) were 51% and 0%, respectively.

As to `[Ca+2].[Cl-].[Cl-]` [CaCl2], the “Residual Activity” value in data set [1] (setting [10]) and in data set [1] (setting [11]) was 99% each time.

On to gly-gly-L--phe, for which, in data set [2], the Activity came out at 0 mU.ml^-1 and the “Relative Activity” value amounted to 0%.

Take L--phe-L--phe: in data set [2], the Activity was found to be 41 mU.ml^-1 and the “Relative Activity” value stood at 33%.

These data come from patent publication US4877734A, “Microbiologically produced α-acetylamino cinnamic acid acylase, method of its production and its use” (Degussa Aktiengesellschaft and Gesellschaft fur …, priority 1986, dated 1989).
